According to patent US20110318738A1, “IDENTIFICATION AND REGULATION OF A NOVEL DNA DEMETHYLASE SYSTEM” (University of Utah Research Foundation, priority 2008, published 2011):

How the values were obtained:
[1] = tested on: apc^mcr zebrafish embryos; experiment: Whole mount in situ hybridization in apc mutant embryos; settings: for irbp (% of embryos): apc^sib 96%; for gadd45α expression (% of embryos) / aid expression (% of embryos): apc^wt + DMSO 94%; for gadd45α expression (% of embryos): apc^mcr + DMSO 9%; for aid expression (% of embryos): apc^mcr + DMSO 17%; for mbd4 expression (% of embryos): apc^wt + DMSO 95%, apc^mcr + DMSO 3%
zebrafish embryos = experiment: Whole mount in situ hybridization for neuronal markers in morpholino-injected embryos; format: in vivo; settings: morpholino injected at single-cell stage, 24 hpf; for Sox-2: embryos showing positive staining for the marker: Control Mo 97%; for Neurogenin-1: embryos showing positive staining for the marker: Control Mo 100%
Description: Wild-type zebrafish (Tuebingen strain) were maintained in a 14 hr:10 hr light:dark cycle in a Z-Mod at 28.5° C. Embryos were injected at single-cell stage and then grown in a 28.5° C. incubator. Morpholinos were obtained from Gene-tools LLC Ltd. For these experiments, morpholino sequences were designed against the following:
Whole mount in situ hybridization was performed as described earlier in Rai et al., 2006 with digoxigenin (Roche) labeled probes against neurogenin-1 and sox-2.
To address whether AID/Apobec enzymes, Gadd45, or zebrafish Mbd4 have a role in the control of DNA methylation during normal zebrafish development, a subset of the enzyme family members were knocked down (by morpholino injection) and their impact on development was examined. Either AID, Gadd45α, or Mbd4 knockdown caused the loss of neurons at 24 hpf, shown by the absence of pro-neuronal markers such as neurogenin-1 or sox-2. […] As neurons form in mice lacking Mbd4 (or AID), zebrafish may rely more on these proteins for neurogenesis than do mice, or alternatively, neurogenesis in zebrafish may be more sensitive to misregulation of DNA methylation levels. […] The percentage listed depicts embryos showing positive staining for the marker indicated.

[2] = tested on: apc^mcr zebrafish embryos; experiment: Quantitative RT-PCR in apc mutant embryos after drug treatment; format: in vivo; settings: for expression of aid, gadd45α and mbd4: all-trans retinoic acid 1 μM or NS-398 10 μM, FIG. 11A
Description: Quantitative RT-PCR primers for amplification of zebrafish rdh1l (Nadauld et al., 2005), human DHRS9 (Jette et al., 2004) 28S rRNA (Eisinger et al., 2006), and h18S rRNA (Delaunay et al., 2000) were described previously, and are (hereby incorporated by reference in its entirety into this application). A template-free negative control was included in each experiment.
(§1) RNA from embryos or human adenoma tissues was isolated using Trizol (Invitrogen). cDNA library was prepared using Superscript III kit (Invitrogen). RT-PCR was performed on a Roche light cycler.

HT29 and DLD1 = experiment: Quantitative RT-PCR for AID, MBD4 and GADD45α in RA responsive colon carcinoma cell lines; format: cell-based; settings: human colon cancer cell lines, ATRA 5 μM each day for two days; FIG. 11C
apc mutants (72 hpf) = experiment: MeDIP-qPCR for various genes in apc mutants; format: in vivo, zebrafish; settings: apc mutant embryos treated with RA; FIG. 11D
Description: (§2) Expression of genes are first normalized to 28S, and then to the control embryo mRNA/28S ratio, valued as 1. […] In panels A-C, expression of genes are normalized first to 28S (A-B) or 18S (C) and then to the control sample values as 1.
This procedure was described in Weber et al., 2007. Briefly, Dynabeads (conjugated with sheep anti-mouse secondary antibody, Invitrogen) were incubated with 10 μg of 5MeC antibody (Eurogentec) for 2 hrs, washed, and then incubated with 4 μg of sonicated DNA (300 bp-1000 bp fragments) overnight Immunoprecipitated DNA was amplified using for whole genome amplification kit (Sigma Aldrich). Following amplification, 2 μg of amplified DNA was labeled with Cy5, and 2 μg of input DNA was labeled with Cy3 (Bio labs). Samples were competitively hybridized to 244K oligonucleotide promoter arrays (Agilent Inc).

wild type embryos = experiment: Quantitative RT-PCR in RA deficiency models; format: in vivo, zebrafish; settings: DEAB treated wild type embryos; FIG. 11B
Description: as §2, §1

[3] = tested on: DLD1, SW480, and HT29 cells; experiment: Quantitative PCR measuring DHRS9 (RDHL) expression in colon cancer cell lines; format: cell-based, human; settings: pargyline 3 mM, FIG. 14B
[4] = apc^mcr embryos, Table 6, apc^mcr 0%
[5] = apc^mcr embryos, Table 6, apc^sib 100%, apc^mcr 0%

With “Corest mo: morpholino 5′-CCTTCTCTAACATTGCGGGCATCTT-3′ (SEQ ID NO. 19) (all phosphorodiamidate morpholino (PMO))” the “irbp (% of embryos)” value [1, 4] was 11% and the “fabp2 (% of embryos)” value [1, 5] was 79%.

With “Pou5f1 Mo: morpholino 5′-CGCTCTCTCCGTCATCTTTCCGCTA-3′ (SEQ ID NO. 14) (all phosphorodiamidate morpholino (PMO))” the “gadd45α expression (% of embryos)” value ([1]; apc^mcr embryos, Table 4) was 83%, the “aid expression (% of embryos)” value ([1]; apc^mcr embryos, Table 4) was 81% and the “mbd4 expression (% of embryos)” value ([1]; apc^mcr embryos, Table 4) was 67%.

In the case of “AID Mo: morpholino against AID, 5′-GTTTTGTTTTCGCTTACCTGTCCAG-3′ (SEQ ID No. 1) (all phosphorodiamidate morpholino (PMO))”, the “Sox-2: embryos showing positive staining for the marker” value (zebrafish embryos) is reported as 13% (n = 38) and the “Neurogenin-1: embryos showing positive staining for the marker” value (zebrafish embryos) is reported as 12% (n = 50).

In the case of `CC1=C(/C=C/C(C)=C/C=C/C(C)=C/C=O)C(C)(C)CCC1` [RAL], the “intestinal differentiation marked by fabp2 expression” value ([1]; apc^mcr embryos treated with exogenous RAL) is reported as “partially restored” and the “fabp2 (% of embryos)” value ([1]; apc^mcr embryos, Table 5, apc^wt + Control Mo 99%, mutant + Control Mo 3%) is reported as 59%.

In the case of `CC1=C(/C=C/C(C)=C/C=C/C(C)=C/C(=O)O)C(C)(C)CCC1` [ATRA, all-trans retinoic acid], the Cebpβ expression ([2]; APC mutants, RA treatment, FIG. 12A) is reported as “down regulated”, the dnmt1 expression ([2]; apc mutants, RA treatment) is reported as “did not restore” and the “expression of aid, gadd45α and mbd4” value ([2]; apc mutants) is reported as “greatly reduced”. For the same molecule, the “expression of pou5f1” value ([2]; apc^mcr mutant embryos, ATRA 1 μM, FIG. 12A) was “reduced the expression”, the “expression of the demethylase genes” value (HT29 and DLD1) was “suppressed expression” and the “DNA methylation on the panel of genes implicated in intestinal differentiation and proliferation” value (apc mutants (72 hpf)) was “reversed the loss of DNA methylation”. For the same molecule, the “gadd45α expression (% of embryos)” value ([1]; apc^mcr embryos, Table 4) was 91%, the “aid expression (% of embryos)” value ([1]; apc^mcr embryos, Table 4) was 85% and the “mbd4 expression (% of embryos)” value ([1]; apc^mcr embryos, Table 4) was 65%. For the same molecule, the “dnmt1 expression (% of embryos)” value ([1]; apc^mcr embryos, Table 4, apc^wt + DMSO 97%, apc^mcr + DMSO 11%) was 89% and the “expression of aldh1a2” value ([1]; apc^mcr mutant, rdh1l morphant or nls mutant zebrafish treated with RA) was “decreased the expression”.

In the case of “Pitx2 Mo: morpholino 5′-TTTATCAAACTTACTCGGACTCTGG-3′ (SEQ ID NO. 15) (all phosphorodiamidate morpholino (PMO))”, the “cyclinD1 (% of embryos)” value ([1]; apc^mcr embryos, Table 5, apc^wt + Control Mo 96%, mutant + Control Mo 17%) is reported as 90% and the “Pcna (% of embryos)” value ([1]; apc^mcr embryos, Table 5, apc^wt + Control Mo 97%, mutant + Control Mo 10%) is reported as 85%.

“Mbd4 Mo: morpholino against zMbd4, 5′-AGAGAGAAACACACCTGCTCGCTGC-3′ (SEQ ID No. 8) (all phosphorodiamidate morpholino (PMO))” was tested, and the “Sox-2: embryos showing positive staining for the marker” value (zebrafish embryos) was 15% (n = 53) and the “Neurogenin-1: embryos showing positive staining for the marker” value (zebrafish embryos) was 14% (n = 43).

“Gadd45α Mo: morpholino against Gadd45α, 5′-ATATAAAAACATACCTTTCCGTTGC-3′ (SEQ ID No. 4) (all phosphorodiamidate morpholino (PMO))” was tested, and the “Sox-2: embryos showing positive staining for the marker” value (zebrafish embryos) was 33% (n = 48) and the “Neurogenin-1: embryos showing positive staining for the marker” value (zebrafish embryos) was 11% (n = 52).

With “Groucho2 mo: morpholino 5′-GCCCTGTGGATACATCTTGAAATGT-3′ (SEQ ID NO. 17) (all phosphorodiamidate morpholino (PMO))” the “irbp (% of embryos)” value [1, 4] was 5%, the “fabp2 (% of embryos)” value [1, 5] was 95% and the “rdh1l (% of embryos)” value [1, 5] was 83%. For the same molecule, the “trypsin (% of embryos)” value [1, 5] was 86%.

`CS(=O)(=O)Nc1ccc([N+](=O)[O-])cc1OC1CCCCC1` [Cox-2 inh, NS-398] was tested, and the “expression of aid, gadd45α and mbd4” value ([2]; apc mutants) was “little effect”, the “gadd45α expression (% of embryos)” value ([1]; apc^mcr embryos, Table 4) was 8% and the “aid expression (% of embryos)” value ([1]; apc^mcr embryos, Table 4) was 20%. The “mbd4 expression (% of embryos)” value ([1]; apc^mcr embryos, Table 4) was 9%%.

“Lsd1 mo: morpholino 5′-GGTCTGACTTCTTATTGGACAACAT-3′ (SEQ ID NO. 18) (all phosphorodiamidate morpholino (PMO))” was tested, and the “irbp (% of embryos)” value [1, 4] was 8% and the “fabp2 (% of embryos)” value [1, 5] was 83%.

In the case of `CCN(CC)c1ccc(C=O)cc1` [DEAB, 4-(diethylamino) benzaldehyde], the “expression of the demethylase genes” value (wild type embryos) is reported as “increased expression”.

In the case of `C#CCN(C)Cc1ccccc1` [pargyline], the “expression of rdh1l” value ([2]; apc^mcr zebrafish embryos, pargyline 3 mM, FIG. 15A) is reported as “rescued expression”, the DHRS9 expression [3] is reported as “upregulated” and the “expression of fabp2” value ([1]; apc^mcr zebrafish embryos, pargyline 3 mM) is reported as “rescued expression”.
